In article PMC10743086, “Immunofluorescence-Based Assay for High-Throughput Analysis of Multidrug Resistance Markers in Non-Small Cell Lung Carcinoma Patient-Derived Cells” (Diagnostics, 2023):

What was measured:
Format in all cases: cell-based, human
[1] = tested on: ABCB1 expression in cancer cells (CK8/18+); assay: Immunofluorescence assay of ABCB1 expression in patient-derived NSCLC cultures; details: 7 days
Description: (§1) Tissue samples were collected during surgery, and the NSCLC diagnosis, histological grade, stage, necrosis, and lymph node invasion status were determined by histopathological analysis. […] The surgical specimens were placed in a sterile tube containing antibiotic-antimycotic solution (Sigma-Aldrich Chemie GmbH, Taufkirchen, Germany) and immediately transported to the research laboratory for further processing.
(§2) Upon arrival, the tissue was manually chopped with a surgical blade in a Petri dish under sterile conditions. The samples were cut into 3–5 mm pieces and further dissociated using the Tumor Dissociation Kit (Miltenyi Biotec, Bergisch Gladbach, Germany). The Tumor Dissociation Kit was used to dissociate the cells from the tumor tissue according to the manufacturer’s instructions. The samples were incubated in a 37 °C orbital shaker (KS 4000 ic control, IKA, Königswinter, Germany) at 300 rpm for 90 min. After incubation, the dissociated tissue was placed in DMEM/Ham’s F12 (1:3 ratio) growth medium supplemented with 5% fetal bovine serum (Corning, NY, USA), antibiotic-antimycotic solution, 4 µg/mL hydrocortisone (Sigma-Aldrich Chemie GmbH, Taufkirchen, Germany), 1 µg/mL insulin (Sigma-Aldrich Chemie GmbH, Taufkirchen, Germany), 10 ng/mL epidermal growth factor (BioLegend, San Diego, CA, USA), and 24 µg/mL adenine (Sigma-Aldrich Chemie GmbH, Taufkirchen, Germany). The DMEM and Ham’s F12 growth media were purchased from Sigma-Aldrich Chemie GmbH (Taufkirchen, Germany).
(§3) The dissociated tissue was cultured in T-25 cell culture flasks until cell attachment was observed before the medium was replaced. If no cell attachment was achieved within 7 days, the sample was discarded. Successful patient-derived cultures were maintained at 37 °C in a humidified atmosphere with 5% CO2 and grown to confluence before undergoing further experiments. […] Partial trypsinization was performed by detaching the fibroblast-like cells with 1 mL of 0.05% trypsin for 1 min at 37 °C, followed by 2 min at room temperature (RT).
(§4) Vinorelbine and pemetrexed were purchased from Selleckchem (Houston, TX, USA). Carboplatin, cisplatin, docetaxel, etoposide, gemcitabine, gefitinib, and paclitaxel were purchased from Sigma-Aldrich Chemie GmbH (Taufkirchen, Germany). The cisplatin, carboplatin, and gemcitabine were dissolved in sterile water, while the etoposide, docetaxel, vinorelbine, paclitaxel, gefitinib, and pemetrexed were dissolved in DMSO and stored at −20 °C. Before treatment, all the stock solutions were freshly diluted in sterile water.
(§5) The primary cells were seeded in black, clear bottom 384-well cell culture microplates (Thermo Fisher Scientific, Waltham, MA, USA) in 50 µL of cell growth medium at a density of 1000 cells per well. The compounds were administered 72 h after seeding. The treatment lasted 7 days.
(§6) The immunofluorescence assay for the quantification of MDR markers was optimized to distinguish cancer cells from stromal cells using a cytokeratin 8/18 (CK8/18) antibody cocktail. The cells were fixed with 4% paraformaldehyde for 20 min at RT and washed three times with PBS using the Wellwash Versa microplate washer (Thermo Fisher Scientific, Waltham, MA, USA). The cells were then blocked with 2% bovine serum albumin (BSA) in PBS for 1 h at RT. […] Co-immunostaining with antibodies against MDR markers was performed to detect the presence of ABCB1, ABCC1, and ABCG2 in both the cancer and stromal cells. […] The secondary antibodies were incubated with the cells at RT for 2 h in the dark. […] Finally, the cells were washed three times with PBS and stored at 4 °C in the dark before imaging.

[2] = tested on: Cancer cells (CK8/18+) of patient-derived NSCLC cultures; assay: Cytotoxicity in patient-derived NSCLC cultures, cancer cells; details: 7 days treatment
Description: as §1, §2, §3, §4, §5, §6

[3] = tested on: ABCG2 expression in cancer cells (CK8/18+); assay: Immunofluorescence assay of ABCG2 expression in patient-derived NSCLC cultures; details: 7 days
Description: as §1, §2, §3, §4, §5, §6

[4] = tested on: ABCG2 expression in non-cancer cells (CK8/18-); assay: Immunofluorescence assay of ABCG2 expression in patient-derived NSCLC cultures, non-cancer cells; details: 7 days
Description: as §1
Upon arrival, the tissue was manually chopped with a surgical blade in a Petri dish under sterile conditions. The samples were cut into 3–5 mm pieces and further dissociated using the Tumor Dissociation Kit (Miltenyi Biotec, Bergisch Gladbach, Germany). The Tumor Dissociation Kit was used to dissociate the cells from the tumor tissue according to the manufacturer’s instructions. The samples were incubated in a 37 °C orbital shaker (KS 4000 ic control, IKA, Königswinter, Germany) at 300 rpm for 90 min. […]
The immunofluorescence assay for the quantification of MDR markers was optimized to distinguish cancer cells from stromal cells using a cytokeratin 8/18 (CK8/18) antibody cocktail. […]

[5] = tested on: ABCC1 expression in non-cancer cells (CK8/18-); assay: Immunofluorescence assay of ABCC1 expression in patient-derived NSCLC cultures, non-cancer cells; details: sample TR58, chemotherapeutics, 7 days
Description: as §1, §2, §3, §4, §5, §6

[6] = culture TR58, cancer cells (CK8/18+)
[7] = culture TR64, cancer cells (CK8/18+)
[8] = culture TR65, cancer cells (CK8/18+)
[9] = culture TR84, cancer cells (CK8/18+)
[10] = culture TR87, cancer cells (CK8/18+)
[11] = Homo sapiens, 168 h, culture TR58, cancer cells (CK8/18+)
[12] = Homo sapiens, 168 h, culture TR64, cancer cells (CK8/18+)
[13] = Homo sapiens, 168 h, culture TR65, cancer cells (CK8/18+)
[14] = Homo sapiens, 168 h, culture TR84, cancer cells (CK8/18+)
[15] = Homo sapiens, 168 h, culture TR87, cancer cells (CK8/18+)

## N.N.[Cl][Pt][Cl] [Cisplatin, cisplatin]
[1]; [6]
  ABCB1 Expression: no change
[1]; [7]
  ABCB1 Expression: increase (An increase in ABCB1, ABCC1, or ABCG2 expression of at least 20% at a minimum of one concentration is shown in the table.)
[1]; [8]
  ABCB1 Expression: increase (An increase in ABCB1, ABCC1, or ABCG2 expression of at least 20% at a minimum of one concentration is shown in the table.)
[1]; [9]
  ABCB1 Expression: increase (An increase in ABCB1, ABCC1, or ABCG2 expression of at least 20% at a minimum of one concentration is shown in the table.)
[1]; [10]
  ABCB1 Expression: increase (An increase in ABCB1, ABCC1, or ABCG2 expression of at least 20% at a minimum of one concentration is shown in the table.)
[2]; [6]
  IC50: 5.78 µM
[2]; [7]
  IC50: 6.07 µM
[2]; [8]
  IC50: 14.6 µM
[2]; [9]
  IC50: 2.11 µM
[2]; [10]
  IC50: 4.82 µM
[3]; [6]
  ABCG2 expression: increase (An increase in ABCB1, ABCC1, or ABCG2 expression of at least 20% at a minimum of one concentration is shown in the table.)
[3]; [7]
  ABCG2 expression: increase (An increase in ABCB1, ABCC1, or ABCG2 expression of at least 20% at a minimum of one concentration is shown in the table.)
[3]; [8]
  ABCG2 expression: increase (An increase in ABCB1, ABCC1, or ABCG2 expression of at least 20% at a minimum of one concentration is shown in the table.)
[3]; [9]
  ABCG2 expression: increase (An increase in ABCB1, ABCC1, or ABCG2 expression of at least 20% at a minimum of one concentration is shown in the table.)
[3]; [10]
  ABCG2 expression: increase (An increase in ABCB1, ABCC1, or ABCG2 expression of at least 20% at a minimum of one concentration is shown in the table.)
[4]; sample TR58, chemotherapeutics
  ABCG2 expression in CK8/18− cells: increased

## Nc1ccn([C@@H]2O[C@H](CO)[C@@H](O)C2(F)F)c(=O)n1 [Gemcitabine, gemcitabine]
[1]; [6]
  ABCB1 Expression: no change
[1]; [7]
  ABCB1 Expression: increase (An increase in ABCB1, ABCC1, or ABCG2 expression of at least 20% at a minimum of one concentration is shown in the table.)
[1]; [8]
  ABCB1 Expression: increase (An increase in ABCB1, ABCC1, or ABCG2 expression of at least 20% at a minimum of one concentration is shown in the table.)
[1]; [9]
  ABCB1 Expression: increase (An increase in ABCB1, ABCC1, or ABCG2 expression of at least 20% at a minimum of one concentration is shown in the table.)
[1]; [10]
  ABCB1 Expression: increase (An increase in ABCB1, ABCC1, or ABCG2 expression of at least 20% at a minimum of one concentration is shown in the table.)
[2]; [11]
  IC50: 2.55 µM
[2]; [12]
  IC50: 4.92 µM
[2]; [13]
  IC50: 4.91 µM
[2]; [14]
  IC50: 2.68 µM
[2]; [15]
  IC50: 3.41 µM
[3]; [6]
  ABCG2 expression: increase (An increase in ABCB1, ABCC1, or ABCG2 expression of at least 20% at a minimum of one concentration is shown in the table.)
[3]; [7]
  ABCG2 expression: increase (An increase in ABCB1, ABCC1, or ABCG2 expression of at least 20% at a minimum of one concentration is shown in the table.)
[3]; [8]
  ABCG2 expression: increase (An increase in ABCB1, ABCC1, or ABCG2 expression of at least 20% at a minimum of one concentration is shown in the table.)
[3]; [9]
  ABCG2 expression: increase (An increase in ABCB1, ABCC1, or ABCG2 expression of at least 20% at a minimum of one concentration is shown in the table.)
[3]; [10]
  ABCG2 expression: increase (An increase in ABCB1, ABCC1, or ABCG2 expression of at least 20% at a minimum of one concentration is shown in the table.)
[4]; sample TR65, chemotherapeutics
  ABCG2 expression in CK8/18− cells: elevated
[5]
  ABCC1 expression in CK8/18− cells: elevated

## CC(=O)O[C@H]1C(=O)[C@@]2(C)[C@H]([C@H](OC(=O)c3ccccc3)[C@]3(O)C[C@H](OC(=O)[C@H](O)[C@@H](NC(=O)c4ccccc4)c4ccccc4)C(C)=C1C3(C)C)[C@]1(OC(C)=O)CO[C@@H]1C[C@@H]2O [Paclitaxel, paclitaxel]
[1]; [6]
  ABCB1 Expression: increase (An increase in ABCB1, ABCC1, or ABCG2 expression of at least 20% at a minimum of one concentration is shown in the table.)
[1]; [7]
  ABCB1 Expression: increase (An increase in ABCB1, ABCC1, or ABCG2 expression of at least 20% at a minimum of one concentration is shown in the table.)
[1]; [8]
  ABCB1 Expression: increase (An increase in ABCB1, ABCC1, or ABCG2 expression of at least 20% at a minimum of one concentration is shown in the table.)
[1]; [9]
  ABCB1 Expression: increase (An increase in ABCB1, ABCC1, or ABCG2 expression of at least 20% at a minimum of one concentration is shown in the table.)
[1]; [10]
  ABCB1 Expression: increase (An increase in ABCB1, ABCC1, or ABCG2 expression of at least 20% at a minimum of one concentration is shown in the table.)
[2]; [11]
  IC50: 1.18 µM
[2]; [12]
  IC50: 1.35 µM
[2]; [13]
  IC50: 1.18 µM
[2]; [14]
  IC50: 2.57 µM
[2]; [15]
  IC50: 4.79 µM
[3]; [6]
  ABCG2 expression: increase (An increase in ABCB1, ABCC1, or ABCG2 expression of at least 20% at a minimum of one concentration is shown in the table.)
[3]; [7]
  ABCG2 expression: increase (An increase in ABCB1, ABCC1, or ABCG2 expression of at least 20% at a minimum of one concentration is shown in the table.)
[3]; [8]
  ABCG2 expression: increase (An increase in ABCB1, ABCC1, or ABCG2 expression of at least 20% at a minimum of one concentration is shown in the table.)
[3]; [9]
  ABCG2 expression: increase (An increase in ABCB1, ABCC1, or ABCG2 expression of at least 20% at a minimum of one concentration is shown in the table.)
[3]; [10]
  ABCG2 expression: increase (An increase in ABCB1, ABCC1, or ABCG2 expression of at least 20% at a minimum of one concentration is shown in the table.)
[5]
  ABCC1 expression in CK8/18− cells: elevated
